Assay results as given in patent publication US11369657B2, “Small molecule polypeptide for preventing and restraining inflammation and application of same” (SHANGHAI FIRST PEOPLE'S HOSPITAL, priority 2011, dated 2022).
“Also recorded” adds a separate entry of the source. Peptide text beside a SMILES is read from it.

Key:
[1] = tested on: uveitis in rats; test: LPS-induced uveitis in rats, intravitreal injection of polypeptide; assay type: in vivo, rat; conditions: for protein concentration in rat aqueous humor / exuded cells count in rat anterior chamber / aqueous humor: 24 hours after LPS injection, vs LPS+PBS group; for protein concentration in rat aqueous humor: BCA method, LS22 intravitreally; for exuded cells count in rat anterior chamber / aqueous humor: LS22 10, 50 or 100 μg intravitreally
Description: 8-week old male wistar rats were randomly divided into 5 groups with 10 rats for each, which are blank+PBS, LPS+PBS group, LPS+LS22 10 μg group, LPS+LS22 50 μg group, LPS+LS 22 100 μg group. 0.15 ml of pentobarbital (5.47 g/100 ml normal saline) was intraperitoneally injected into the rats for anesthesia. 100 μl of LPS (2 μg/μl) was subcutaneously injected into the right hindpaw of rats both in treating group and positive control group. An equal volume of normal saline was injected into the same position of the rats in blank+PBS group. 5% tropicamide and 1% tetracaine was dropped on the eye for mydriasis and local anesthesia. Under operating microscope, 10 μl of polypeptide or PBS of equal volume was intravitreally injected of bilateral eyes. The pars plana was vertically punctured by a 29-gauge microsyringe at 1 mm from corneal limbus and the vitreous cavity was reached. The drug liquid was then injected into the center of the vitreous cavity under direct vision and the needle was pulled out quickly after remaining for a few seconds. All above steps were conducted aseptically.
24 hours after LPS was injected, 6 rats in each experimental group were subjected to anterior chamber puncture by 30 G needle under deep anesthesia, and then bilateral aqueous humor was collected. Other 4 rats were sacrificed by cervical dislocation and the eyeballs were taken and immobilized.
The aqueous humor sample was diluted to 1:5 by trypan blue and then added into hemocytometer for manual counting under optical microscope, and total protein concentration was determined by BCA method.
The eyeballs were taken and immobilized by neutral formaldehyde (10%) and stored at 4° C. The sample was embedded into paraffin, cut into sagittal slices with the thickness of 5 μm, and then subjected to HE staining. The iris and ciliary body, anterior chamber, vitreous body and retina of the eyeballs were observed under optical microscope. The exuded cells in anterior chamber and vitreous cavity were counted by the same pathologist.
The experiment date was shown as x±s. A one-way ANOVA was used to compare the exuded cells and total protein concentration between these groups, and P<0.05 represents statistical significance.

[2] = tested on: RAW264.7 cells; test: Cell viability assay (MTS); assay type: cell-based, mouse; conditions: RAW264.7 cells co-incubated 24 hours
Description: RAW264.7 cells were placed into a 96-well plate for 24-hour adherent culture, and then peptides with different concentrations were added into each well and co-cultured for another 24 hours, while no treatment was taken to the control group. 20 μl of MTS solution was added into each well after 24 hours and cultured for another 3 hours. The culture plate was taken to determine the absorbance of each well at 490 nm.
(§1) The experiment date was shown as x±s. A SPSS 11.0 statistical package was used for statistic analysis and a one-way ANOVA was used to compare RAW264.7 cell viability results, TNF-α and IL-6 level between the groups, and P<0.05 represents statistical significance.

[3] = tested on: TNF-α; test: TNF-α level in supernatant of LPS-stimulated RAW264.7 cells (ELISA); assay type: cell-based, mouse; conditions: 0.1-10 μM LS22 pretreatment 30 min, LPS 100 ng/mL 24 hours
Description: (§2) Mouse RAW264.7 cells were inoculated on the 24-well cell culture plate (400 μl/well). RAW264.7 was pretreated with 0.1-10 μM of LS22 for 30 min, and then LPS (100 ng/mL) was added and co-incubated for 24 hours. Cell supernatant in each well was collected and TNF-α and IL-6 level was determined by ELISA kits.
as §1
(§3) Derived Polypeptides were prepared as follows. Polypeptides were prepared according to the method in Example 1, and the inhibiting effect of the polypeptides on ocular inflammation was determined according to Examples 2-3.

[4] = tested on: IL-6; test: IL-6 level in supernatant of LPS-stimulated RAW264.7 cells (ELISA); assay type: cell-based, mouse; conditions: 0.1-10 μM LS22 pretreatment 30 min, LPS 100 ng/mL 24 hours
Description: as §2, §1, §3

[5] = Water solubility of the synthesized powder; assay type: physicochemical; conditions: white powder
Description: 7. 120 mg of polypeptide LS22 was obtained as white powder with good water solubility (purification >95%) and then sealed and stored for use at −20° C.

[6] = tested on: ocular inflammation; test: Inhibiting effect of derived polypeptides on ocular inflammation according to Examples 2-3
Description: as §3

| Compound | protein concentration in rat aqueous humor [1] | protein concentration in rat aqueous humor ([1]; listed as LSS) | exuded cells count in rat anterior chamber / aqueous humor [1] | exuded cells count in rat anterior chamber / aqueous humor ([1]; listed as LSS) | inflammatory cells in tissues (histopathologic examination) ([1]; HE staining, anterior chamber, ciliary body, posterior vitreous cavity, after LPS injection) | inhibition of uveitis ([1]; rats, LPS-induced) | toxicity to the cells [2] | cell viability compared with the control group ([2]; MTS) | LPS-induced TNF-α level in cell supernatant [3] | LPS-induced IL-6 level in cell supernatant [4] | water solubility [5] | anti-inflammation effect ([6]; derived polypeptides, 10 μg group or 10 μM) | anti-inflammation effect compared with LS22 ([6]; weaker than LS22) |
| --- | --- | --- | --- | --- | --- | --- | --- | --- | --- | --- | --- | --- | --- |
| CC[C@H](C)[C@H](NC(=O)[C@H](CO)NC(=O)[C@H](CC(N)=O)NC(=O)[C@H](Cc1c[nH]cn1)NC(=O)[C@H](CO)NC(=O)[C@H](CC(C)C)NC(=O)[C@H](CC(=O)O)NC(=O)[C@@H](N)CC(C)C)C(=O)N[C@@H](CO)C(=O)N[C@@H](CCC(N)=O)C(=O)N[C@@H](CCC(=O)O)C(=O)N[C@@H](CO)C(=O)N[C@@H](C)C(=O)N[C@@H](CC(C)C)C(=O)N[C@@H](Cc1ccc(O)cc1)C(=O)N[C@@H](CC(C)C)C(=O)N[C@@H](CC(C)C)C(=O)N[C@@H](CCC(=O)O)C(=O)N[C@H](C(=O)N[C@@H](CC(C)C)C(=O)N1CCC[C@H]1C(=O)N[C@@H](CO)C(=O)O)[C@@H](C)O [LS22] (H-LDLSHNSISQESALYLLETLPS-OH; N-terminus assumed) | remarkably decreased | significantly reduced | remarkably reduced | significantly reduced | greatly reduced; also recorded: significantly reduced | significantly inhibited uveitis | no toxicity was observed | no statistically significant difference | significantly inhibited; also recorded: remarkably inhibited | significantly inhibited; also recorded: remarkably inhibited | good |  |  |
| Polypeptide 7: sequence as set forth by SEQ ID NO.: 5 (ALQSLNLSENGLSLDAVLGLV) |  |  |  |  |  |  |  |  |  |  |  | exhibits an anti-inflammation effect to some extent | about 30% |
